Test results from US20240091215A1, “TASQUINIMOD OR A PHARMACEUTICALLY ACCEPTABLE SALT THEREOF FOR USE IN THE TREATMENT OF MYELODYSPLASTIC SYNDROME” (ACTIVE BIOTECH AB, priority 2021, published 2024).

What was measured:
PD-L1 = details: Oncoimmunology 2016, Vol. 5, No. 6, e1145333; cited from earlier work
MSCs [1] = test: CellROX Deep Red Flow Cytometry Assay of ROS levels; assay type: cell-based, human
Experimental: The inflammatory micromilieu of the myelodysplastic bone marrow leads to increased ROS levels which may cause aberrant cellular function. Therefore, the effect of tasquinimod on ROS levels in MSCs is assayed using the CellROX™ Deep Red Flow Cytometry Assay kit (Thermo Fisher) according to the manufacturer's instructions.

MDS MSCs = test: MSC differentiation assays (adipogenic, osteogenic); assay type: cell-based, human
Experimental: Adipogenic and osteogenic differentiation capacity is an important functional feature of MSCs and often altered in MDS leading to changes in the bone metabolism. Therefore, the effect of tasquinimod on adipogenic and osteogenic differentiation was assayed as follows.
MSCs were seeded in 6-well plates (5×10^3 MSCs/cm^2), cultured to subconfluency for approximately 4 days in DMEM, and subjected to adipogenic (0.5 mM […], 1 μM dexamethasone, 100 μM indomethacin, 10 μM insulin) or osteogenic (0.1 μM dexamethasone, 0.2 mM ascorbate-2-phosphate, 10 mM β-glycerophosphate) differentiation. […] Differentiation was graded according to microscopic analysis as follows: 0=no differentiation; 1=25% of the culture wells contain differentiated cells; 2=50% of the culture wells contain differentiated cells; 3=75% of the culture wells contain differentiated cells; 4=100% of the culture wells contain differentiated cells. Osteogenesis was determined by van Kossa staining, and the catalytic activity of ALP was determined.

[2] = tested on: IRAK1, NF-κB-p65 and gasdermin in MDS MSCs; test: Western blot of IRAK1, NF-κB-p65 and gasdermin in MDS MSCs treated with S100A9 with or without tasquinimod; assay type: cell-based, human; details: S100A9 1.5 μg/ml, tasquinimod 10 μM, 48 h
Experimental: GAPDH (38 kDa) served as reference protein. Lane 1=untreated control; lane 2=treated with S100A9; lane 3=treated with S100A9/tasquinimod.
(§1) BM mononuclear cells were isolated by percoll gradient centrifugation and MSCs were grown as adherent monolayer in DMEM/10% FCS. Passages 2-5 were used for the experiments.
(§2) To mimic inflammatory conditions, in-vitro cultured MSCs were treated with recombinant S100A8, S100A9 or the S100A8/9 heterodimer (each 1.5 μg/ml) or TNF-α (10 ng/ml) in the presence or absence of tasquinimod (10 μM) for different time periods depending on the subsequent experiments. Hematopoietic stem and progenitor cells (HSPCs) for cocultures were isolated using CD34 antibody-conjugated magnetic beads, according to the manufacturer's instructions (Miltenyi Biotec) and were added in CellGro medium (CellGenix) containing stem cell factor (SCF), FLT3-L and IL-3 (10 ng/ml each).
(§3) Whole cell lysates were prepared using RIPA lysis buffer containing proteinase inhibitors. Protein concentrations were determined using the BCA Protein Assay Kit. Equal protein amounts were separated by SDS-polyacrylamide gel electrophoresis and transferred to polyvinylidene fluoride membranes for detection of specific proteins using primary antibodies for IRAK1, NF-κB-p65, gasdermin and OXPHOS overnight at 4° C., following secondary antibodies HRP-conjugated goat anti-mouse IgG (Invitrogen) or donkey anti-rabbit IgG (GE Healthcare), respectively. The blots were incubated with ECL Plus Western Blotting reagent (Amersham) and the signals captured using a LAS3000 imaging system.

[3] = tested on: PD-L1 in healthy and CMML MSCs; test: Western blot of PD-L1 in healthy and CMML MSCs; assay type: cell-based, human; details: 48 h; for PD-L1 expression in the absence of S100A9: tasquinimod alone
Experimental: Lane 1=untreated control; lane 2=treated with tasquinimod; lane 3=treated with S100A9; […] tasquinimod.
as §1, §2, §3

[4] = tested on: MDS MSC co-cultured with hematopoietic progenitor cells; test: CFU assay with cells harvested after one week of MSC/HSPC co-culture; assay type: cell-based, human; details: colonies counted after 2 weeks
From the text: FIG. 6b is a bar chart showing the number of colonies/300 cells in CFU assays performed using MDS MSC cells cocultured with hematopoietic progenitor cells, harvested after one week of co-culture in the presence of S100A9 or in the presence of both S100A9 and tasquinimod or in the absence of both S100A9 and tasquinimod (“control”), with 300 cells being plated in enriched methylcellulose medium with recombinant cytokines (MethoCult™ H4435, STEMCELL Technologies). Colonies were counted after 2 weeks and classified under a microscope or with the STEMvision™ system (STEMCELL Technologies). FIG. 6c is a bar chart showing the number of colonies/300 cells in CFU assays performed using MDS MSC cells and hematopoietic progenitor cells, harvested after one week of co-culture in the presence (“TASQ”) or absence (“without”) of tasquinimod, with 300 cells being plated in enriched methylcellulose medium with recombinant cytokines (MethoCult™ H4435, STEMCELL Technologies). Colonies were counted after 2 weeks and classified under a microscope or with the STEMvision™ system (STEMCELL Technologies). […] Colonies were counted after 2 weeks and classified under a microscope or with the STEMvision™ system (STEMCELL Technologies).

[5] = tested on: IRAK1, NF-κB-p65 and gasdermin in MDS MSCs; test: Western blot of IRAK1, NF-κB-p65 and gasdermin in MDS MSCs treated with TNF-α with or without tasquinimod; assay type: cell-based, human; details: MSC cultures, TNF-α 10 ng/ml, tasquinimod 10 μM, 48 h
Experimental: GAPDH (38 kDa) served as reference protein. Lane 1=treated with TNF-α; lane 2=treated with TNF-α and tasquinimod.
as §2, §3

MSCs [6] = test: Seahorse Metabolic Extracellular Flux Profiling (Cell Mito Stress Test); assay type: cell-based, human
Experimental: The impact of tasquinimod on cellular metabolism is investigated by using the Seahorse system (Agilent Technologies). MSCs are seeded in Seahorse 96-well plates. Cell Mito Stress Test (XF Cell Mito Stress Test Kit, Agilent Technologies) is performed following the standard protocol. Oxygen consumption rate (OCR) and Extracellular Acidification Rate (ECAR) are detected after injection of oligomycin ([…]), carbonyl cyanide-p-trifluoromethoxyphenylhydrazone (FCCP, […]), and the combination of rotenone and antimycin (Rot/AA, […]). OCR is measured with an XF96 analyzer and the Wave software (version 2.2.0).

PD-1 = PD-1 expression (RT-PCR) in MSC/HSPC co-cultures; assay type: cell-based, human; details: summary statement; PD-1 measured in co-cultured HSPCs
Experimental: as §2
[…] Relative target quantity was determined using the comparative CT (ΔΔCT) method. RT-PCR was performed using SYBR Green/ROX PCR master mix (Thermo) and target specific primers for caspasel, IL1β, IL18, PD-L1, PD-1 and GAPDH as housekeeping gene on a Taqman™ Fast 3500 cycler (Applied Biosystems). Amplicons were normalized to endogenous GAPDH control.

αSMA and NF-κB in MSCs = test: Immunofluorescence staining and confocal microscopy of S100A9/tasquinimod treated MSCs; assay type: cell-based, human
Experimental: as §2
S100A9/tasquninimod treated MSCs were fixed with 4% paraformaldehyde. Cells were permeabilized using PBS containing 0.1% Triton™ X-100 (T-PBS), blocked with T-PBS containing 10% FCS and 1% HSA (IF-Buffer) and incubated over night at 4° C. with antibodies against αSMA, NFκB or PD-L1. Secondary antibodies polyclonal sheep-anti-rabbit-Cy3 or polyclonal goat-anti-mouse-Cy2 were incubated for 1 h at room temperature. Cell nuclei were counterstained with DAPI. Imaging analysis was performed by confocal microscopy (LSM800, Carl Zeiss) and ZEN software.

[7] = tested on: MDS MSC co-cultured with hematopoietic progenitor cells; test: CAF-C assay, MSC/HSPC co-culture with pre-treated stromal layers; assay type: cell-based, human; details: stromal layers pre-treated with S100A9 and tasquinimod, one to four weeks
Experimental: FIG. 6a is a bar chart showing quantification of CAF-C when co-culturing MDS MSC with hematopoietic progenitor cells, after one, two, three and four weeks without the presence of either S100A9 or tasquinimod (“without”), in the presence of tasquinimod (TASQ), in the presence of S100A9 (S100A9), and in the presence of both s100A9 and tasquinimod (S100A9+TASQ).
as §2
CAF-C assays were performed over four weeks using pre-treated healthy or MDS MSC layers. One thousand magnetically isolated CD34+ cells were added in StemMACS™ HSC-CFU complete medium (Miltenyi Biotec).

[8] = tested on: genetically modified mice (e.g. B6; 129-Trp53bp^tm1Jc/J and NUP98/HOXD13); test: In vivo validation in genetically modified mice developing signs of MDS; details: MDS mouse models, blood counts weekly, bone marrow after 20 weeks
Experimental: The promising in vitro results are validated in vivo in different mouse models. In these models, genetically modified mice (e.g. B6; 129-Trp53bp^tm1Jc/J and NUP98/HOXD13) which develop typical signs of MDS such as anemia and cytopenia are treated with tasquinimod. Peripheral blood counts are recorded weekly and finally the bone marrow is analysed after 20 weeks.

[9] = tested on: IL-1β, IL-18, Casp1 and PD-L1 mRNA in MDS MSCs; test: RT-PCR mRNA expression of IL-1β, IL-18, caspase 1 and PD-L1 in MDS MSCs treated with S100A9 with or without tasquinimod; assay type: cell-based, human; details: 48 h
Experimental: FIG. 3 is a bar chart representing the mRNA expression levels of IL-1β, IL-18, Casp1 and PD-L1 by real-time PCR of MDS MSCs after 48 h treatment with tasquinimod only (TASQ), with S100A9 only (S100A9), or with both S100A9 and tasquinimod (S100A9+TASQ). Amplicons for IL-1β, IL-18, Casp1 and PD-L1 were normalized to endogenous GAPDH expression and the untreated MSCs were set to 1 (=control).
as §1, §2
RNA was isolated from MSC using RNeasy Mini Kit (Qiagen) and reverse transcribed into cDNA using RevertAid™ cDNA synthesis kit (Thermo Fisher) with oligo-dT primers. Relative target quantity was determined using the comparative CT (ΔΔCT) method. RT-PCR was performed using SYBR Green/ROX PCR master mix (Thermo) and target specific primers for caspasel, IL1β, IL18, PD-L1, PD-1 and GAPDH as housekeeping gene on a Taqman™ Fast 3500 cycler (Applied Biosystems). Amplicons were normalized to endogenous GAPDH control.

[10] = MSCs, induced by S100A9, tasquinimod 10 μM
[11] = MDS MSCs, S100A9-induced increase, tasquinimod 10 μM

mRNA expression of IL-1β [9, 11]: this increase was inhibited | mRNA expression of IL-18 [9, 11]: this increase was inhibited | mRNA expression of caspase 1 [9, 11]: this increase was inhibited | PD-L1 expression at the mRNA level [9, 10]: suppressed
SMILES: COc1cccc2c1c(O)c(C(=O)N(C)c1ccc(C(F)(F)F)cc1)c(=O)n2C [tasquinimod, 4-hydroxy-5-methoxy-N,1-dimethyl-2-oxo-N-[4-(trifluoromethyl)phenyl]-1,2-dihydroquinoline-3-carboxamide]
expression of PD-L1, previously reported (PD-L1): upregulate expression of PD-L1 | ROS levels in MSCs (MSCs [1]): block elevated ROS levels | decrease in number of adipocytes (Oil red O positive cells) (MDS MSCs; MDS MSCs, after 14 days of cultivation in differentiation medium): 25-50% | adipogenic differentiation (MDS MSCs; MSC differentiation assay): reducing | osteogenic differentiation (MDS MSCs; MSC differentiation assay): improving | expression of IRAK1 (Western blot) [2]: inhibited the expression | expression of NF-κB-p65 (Western blot) [2]: inhibited the expression | expression of gasdermin (Western blot) [2]: inhibited the expression | PD-L1 expression in the absence of S100A9 ([3]; MSC from CMML MDS patients): downregulation of PD-L1 | PD-L1 expression in the absence of S100A9 ([3]; MSC from healthy volunteers): downregulation of PD-L1 | PD-L1 expression at the protein level [3, 10]: suppressed | number of CFUs [4]: increased | expression of IRAK1 (Western blot) [5]: inhibited the expression | expression of NF-κB-p65 (Western blot) [5]: inhibited the expression | expression of gasdermin (Western blot) [5]: inhibited the expression | Spare Respiratory Capacity (MSCs [6]): improved | cellular stress (MSCs [6]): reduced cellular stress | PD-1 expression (PD-1): inhibition | NF-kB (nuclear) expression in MSCs (αSMA and NF-κB in MSCs): reduces | αSMA expression in MSCs (αSMA and NF-κB in MSCs): reduces | number of CAF-Cs [7]: increased | restoration of functional hematopoiesis [8]: partly restore functional hematopoiesis
